The values that follow come from patent US20230085362A1, “PYRIMIDINE COMPOUNDS AND USE THEREOF” (National Health Research Institutes, priority 2021, published 2023).

Read-outs that look alike come from different tables or passages of the source.

The subject of this series is Primary DRG cells. Description: Neurite outgrowth assay (group A), paclitaxel-induced neurotoxicity. It is filed as cell-based, C57BL/6 J mice. As to conditions: for neuroprotection against paclitaxel-induced neurotoxicity: 1 µM compound; for activity at 1 µM: Mus musculus, read-out: Neurite outgrowth (%); for Neurite outgrowth (%) A-B (extent of protection): difference between compound 1 µM + paclitaxel 0.05 µM and paclitaxel 0.05 µM alone. On the procedure:
Compounds of this invention were evaluated using the neurite outgrowth assay as described in Chen et al., Scientific Reports, 7, 45366, DOI: 10.1038/srep45366 (2017).
Cell culture. For primary culture, dorsal root ganglia (“DRG”) were removed from 7-weeks-old C57BL/6 J mice and digested with 0.1% collagenase (Sigma-Aldrich, St. Louis, MO) for 1 hour, followed by 0.25% trypsin treatment for 25 minutes. The dissociated neuron cultures were plated at a density of 2.5×10^4 cells per well in a 96 well optics plates (CLS3614; Sigma-Aldrich) precoated with 1 mg/mL poly-D-lysine (A-003-M; Sigma-Aldrich) for 3 hours. Primary DRG cells were grown in DMEM-F12 (11320033; Gibco®, ThermoFisher Scientific, Waltham, MA) supplemented with 10% fetal bovine serum (FBS, 26140079; Gibco®, ThermoFisher). These cells were maintained at 37° C. in an environment containing 5% CO2.
Neurite outgrowth assay (group A). Primary DRG cells were incubated with one of the Example 2 compounds at 1 µM for 24 hours, and then treated with 0.05 µM paclitaxel for another 24 hours. After the paclitaxel treatment, the primary DRG cells were washed by PBS and then fixed with 4% paraformaldehyde (PFA, P6148; Sigma-Aldrich) for 15 minutes. The DRG cells thus fixed were permeabilized by 0.05% Triton X-100 in PBS for 20 minutes and blocked with 3% bovine serum albumin (BSA; Sigma-Aldrich, USA) at room temperature for 1 hour. Subsequently, DRG cells were stained with rabbit anti-β III tubulin (1:600; Cell Signaling, USA) and mouse anti-NeuN monoclonal antibody (1:400; Millipore, USA) overnight at 4° C. The samples were then washed by PBS and reacted with secondary antibodies (Alexa-488 and Alexa-594 1:600; Invitrogen, CA) at room temperature for 1 hour. For image acquisition and analysis of DRG neurite outgrowth, images of stained cells were automatically acquired using 10X objective by Image Xpress Micro wide field fluorescent microscope (Molecular Devices, USA). A control was obtained following the same procedure except that the DRG cells were not treated with a compound or paclitaxel. Neurite outgrowth was measured as a percentage of outgrowth as compared to the control.
The difference between A and B indicates an extent of protection provided by the compound.

The mark [1] stands for this setting: DRG cells, 1 µM compound 24 h then 0.05 µM paclitaxel 24 h, % of untreated control.

For the molecule `O=C(O)CCN1CCC(Nc2cc(N3CCOCC3)nc(NCc3cn(CC(=O)O)nn3)n2)CC1` [Compound 6], the “Neurite outgrowth (%) A-B (extent of protection)” value (“Neurite outgrowth (%) A-B” below) was 3%. The “neuroprotection against paclitaxel-induced neurotoxicity” value (“neuroprotection” for short) (0.05 µM paclitaxel) is “neuroprotection was provided”. In addition, where the note is “24 h”, the activity at 1 µM was determined as 46%.
On to `NCCCn1cc(CNc2nc(NC3CCN(C(=O)CCNC(=O)C4(O)CC(O)C(O)C(O)C4)CC3)cc(N3CCOCC3)n2)nn1` (stereo not shown) [Compound 15], for which the “Neurite outgrowth (%) A-B” value is 3%. Further, the “neuroprotection” value (0.05 µM paclitaxel) is reported as “neuroprotection was provided”. Further, under setting [1], the activity at 1 µM was found to be 35%.
For the molecule `CC(C)NCCCn1cc(CNc2nc(NC3CCNCC3)cc(N3CCOCC3)n2)nn1` [Compound 18], the “Neurite outgrowth (%) A-B” value worked out at 3%. Moreover, under “0.05 µM paclitaxel”, the “neuroprotection” value is “neuroprotection was provided”. In addition, the activity at 1 µM under setting [1] worked out at 50%.
On the same counts, the results for `COC(=O)c1cccc(CNCCCn2cc(CNc3nc(NC4CCN(Cc5ccccc5)CC4)cc(N4CCOCC4)n3)nn2)c1` [Compound 21] are 3%, “neuroprotection was provided” and 45%.
For `CCCCC(=O)NCCCn1cc(CNc2nc(NC3CCN(CCP(=O)(O)O)CC3)cc(N3CCOCC3)n2)nn1` [Compound 28] the same measures were 3%, “neuroprotection was provided” and 53%.
Turning to `OCCCn1cc(CNc2nc(NC3CCNCC3)cc(N3CCCCC3)n2)nn1` [Compound 38], the “Neurite outgrowth (%) A-B” value came to 5%. Also, under “0.05 µM paclitaxel”, the “neuroprotection” value is listed as “neuroprotection was provided”. Also, the activity at 1 µM under setting [1] is 37%.
Take `CN1CCN(c2cc(NC3CCNCC3)nc(NCc3cn(CCCO)nn3)n2)CC1` [Compound 41]: the “Neurite outgrowth (%) A-B” value is on record as 3%. Besides, for the setting “0.05 µM paclitaxel”, the “neuroprotection” value is reported as “neuroprotection was provided”. In addition, the activity at 1 µM under setting [1] turned out to be 34%.
On the same counts, the results for `CN1CCN(c2cc(NCc3cccnc3)nc(NCc3cn(CCCO)nn3)n2)CC1` [Compound 42] are 3%, “neuroprotection was provided” and 34%.
On the same counts, the results for `COC(=O)CCN1CCC(Nc2cc(N3CCOCC3)nc(NCc3cn(CCCO)nn3)n2)CC1` [Compound 48] are 11%, “neuroprotection was provided” and 58%.
Take `CC(O)Cn1cc(CNc2nc(NC3CCNCC3)cc(N3CCOCC3)n2)nn1` (stereo not shown) [Compound 53]: the “Neurite outgrowth (%) A-B” value turned out to be 2%. Also, the “neuroprotection” value (0.05 µM paclitaxel) is recorded as “neuroprotection was provided”. For the same molecule, the activity at 1 µM under setting [1] amounted to 47%.
Consider `CC(C)(O)CCn1cc(CNc2nc(NC3CCN(CCP(=O)(O)O)CC3)cc(N3CCOCC3)n2)nn1` [Compound 60], for which the “Neurite outgrowth (%) A-B” value is on record as 4%. The “neuroprotection” value (0.05 µM paclitaxel) is “neuroprotection was provided”. Also, the activity at 1 µM under setting [1] amounted to 40%.
For `COCCCn1cc(CNc2nc(NC3CCNCC3)cc(N3CCOCC3)n2)nn1` [Compound 61] the same measures were 3%, “neuroprotection was provided” and 52%.
As to `COCCCn1cc(CNc2nc(NC3CCN(CCC(=O)OC)CC3)cc(N3CCOCC3)n2)nn1` [Compound 62], the “Neurite outgrowth (%) A-B” value came out at 3%. Also, where the note is “0.05 µM paclitaxel”, the “neuroprotection” value is “neuroprotection was provided”. For the same molecule, under setting [1], the activity at 1 µM was determined as 50%.
Take `COC(=O)CCOCCCn1cc(CNc2nc(NC3CCN(Cc4ccccc4)CC3)cc(N3CCOCC3)n2)nn1` [Compound 65]: the “neuroprotection” value (0.05 µM paclitaxel) is “neuroprotection was provided”.
In the case of `COC(=O)CCOCCCn1cc(CNc2nc(NC3CCN(CCC(=O)OC)CC3)cc(N3CCOCC3)n2)nn1` [Compound 66], the “Neurite outgrowth (%) A-B” value was 5%. The “neuroprotection” value (0.05 µM paclitaxel) is recorded as “neuroprotection was provided”. Also, under setting [1], the activity at 1 µM came out at 52%.
Take `COC(=O)CCOCCCn1cc(CNc2nc(NC3CCN(Cc4cccc(C(=O)OC)c4)CC3)cc(N3CCOCC3)n2)nn1` [Compound 68]: the “Neurite outgrowth (%) A-B” value came out at 1%. Moreover, the “neuroprotection” value (0.05 µM paclitaxel) was “neuroprotection was provided”. In addition, the activity at 1 µM (24 h) worked out at 41%.
`COC(=O)CCOCCCn1cc(CNc2nc(NC3CCN(Cc4ccc(C#N)cc4)CC3)cc(N3CCOCC3)n2)nn1` [Compound 72]: the “Neurite outgrowth (%) A-B” value is listed as 3%. Besides, the “neuroprotection” value (0.05 µM paclitaxel) was “neuroprotection was provided”. Further, the activity at 1 µM under setting [1] came to 45%.
On the same counts, the results for `COC(=O)CCCCC(=O)N1CCC(Nc2cc(N3CCOCC3)nc(NCc3cn(CCCOCCC(=O)OC)nn3)n2)CC1` [Compound 73] are 3%, “neuroprotection was provided” and 45%.
For `CCOC(=O)CNCCC(=O)N1CCC(Nc2cc(N3CCOCC3)nc(NCc3cn(CCCOCCC(=O)OC)nn3)n2)CC1` [Compound 74] the same measures were 3%, “neuroprotection was provided” and 45%.
In the case of `COC(=O)CCOCCCn1cc(CNc2nc(NC3CCN(Cc4ccc5ccccc5c4)CC3)cc(N3CCOCC3)n2)nn1` [Compound 75], the “neuroprotection” value (0.05 µM paclitaxel) is “neuroprotection was provided”.
Take `OCC(CO)Cn1cc(CNc2nc(NC3CCN(Cc4ccccc4)CC3)cc(N3CCOCC3)n2)nn1` [Compound 81]: the “Neurite outgrowth (%) A-B” value is reported as 2%. The “neuroprotection” value (0.05 µM paclitaxel) was “neuroprotection was provided”. Moreover, under setting [1], the activity at 1 µM amounted to 52%.
For `CCn1nnc(CNc2nc(NC3CCN(CCC(=O)OC)CC3)cc(N3CCOCC3)n2)n1` [Compound 100] the same measures were 3%, “neuroprotection was provided” and 52%.
For the molecule `OCCCn1cc(CNc2cc(NC3CCNCC3)nc(NCc3cn(CCCO)nn3)n2)nn1` [Compound 108], the “Neurite outgrowth (%) A-B” value stood at 9%. The “neuroprotection” value (0.05 µM paclitaxel) is given as “neuroprotection was provided”. For the same molecule, where the note is “24 h”, the activity at 1 µM came out at 41%.
In the case of `O=P(O)(O)CCN1CCC(Nc2cc(N3CCOCC3)nc(NCc3cn(CCO)nn3)n2)CC1` [Compound 114], the “Neurite outgrowth (%) A-B” value stood at 8%. Further, the “neuroprotection” value (0.05 µM paclitaxel) is on record as “neuroprotection was provided”. Moreover, the activity at 1 µM under setting [1] turned out to be 55%.
In the case of `O=P(O)(O)CCN1CCC(Nc2cc(N3CCOCC3)nc(NCc3cn(CCCCO)nn3)n2)CC1` [Compound 117], the “Neurite outgrowth (%) A-B” value came to 11%. For the same molecule, the “neuroprotection” value (0.05 µM paclitaxel) was “neuroprotection was provided”. The activity at 1 µM under setting [1] came to 58%.
On the same counts, the results for `O=P(O)(O)CCN1CCC(Nc2cc(N3CCCCC3)nc(NCc3cn(CCCO)nn3)n2)CC1` [Compound 135] are 6%, “neuroprotection was provided” and 56%.
For the molecule `O=P(O)(O)CCN1CCC(Nc2cc(N3CCSCC3)nc(NCc3cn(CCCO)nn3)n2)CC1` [Compound 140], the “Neurite outgrowth (%) A-B” value is listed as 4%. Also, the “neuroprotection” value (0.05 µM paclitaxel) is reported as “neuroprotection was provided”. In addition, under setting [1], the activity at 1 µM turned out to be 54%.
On the same counts, the results for `O=P(O)(O)CCN1CCC(Nc2cc(N3CCS(=O)(=O)CC3)nc(NCc3cn(CCCO)nn3)n2)CC1` [Compound 143] are 7%, “neuroprotection was provided” and 57%.
`CC(=O)O[C@H]1C(=O)[C@@]2(C)[C@H]([C@H](OC(=O)c3ccccc3)[C@]3(O)C[C@H](OC(=O)[C@H](O)[C@@H](NC(=O)c4ccccc4)c4ccccc4)C(C)=C1C3(C)C)[C@]1(OC(C)=O)CO[C@@H]1C[C@@H]2O` [paclitaxel, reference compound]: the “neurotoxicity to DRG neurite outgrowth” value (0.05 µM paclitaxel 24 h) is recorded as “inhibiting neurite outgrowth”. For the same molecule, the “inhibition of DRG neurite outgrowth” value (0.05 µM paclitaxel, across experiments of Table 1) is 50%-69.
